Key:
neo +/+ transgenic mice = test: Acute toxicity of G418; type: in vivo, mouse; conditions: for survival / body weight, percentage of the body weight before the experiment: Neo +/+, 10 days
Protocol: (§1) As in Example 1, applicants characterized the tissue specific expression of neoR mRNA and furthermore, investigated acute tissue specific toxicities of G418 in neo^R+/+ mice. The neoR mRNA reached highest levels in testis, intermediate in brain, kidney and liver. Low levels were detected in heart skeletal muscle and lungs and almost undetectable low levels in spleen. For acute toxicity determination the animals were treated with a single dose i.p. at concentrations starting at 47 mg/kg and increased thereafter by approximately 50% for each consecutive dose. The neoR expression in transgenic animals caused 10-fold increase of the approximate lethal dose of G418 (Table 4).

Neo −/− mice = test: Acute toxicity of G418; type: in vivo, mouse; conditions: 10 days
Protocol: as §1

neo^R mice = test: Biochemical analysis of mouse serum after G418; type: in vivo; conditions: 335 mg/kg single i.p., serum 48 hrs after treatment
Protocol: (§2) BUN and CRE levels are diagnostic markers of kidney damage. […] In these transgenic animals G418 at the highest dose (1140 mg/kg) caused immediate toxicity resulting in death due to breath failure within 10 minutes after injection.

wildtype mice = test: Biochemical analysis of mouse serum after G418; type: in vivo; conditions: 335 mg/kg single i.p., serum 48 hrs after treatment
Protocol: as §2

With `CN[C@@H]1[C@@H](O)[C@@H](O[C@@H]2[C@@H](O)[C@H](O[C@H]3O[C@H]([C@@H](C)O)[C@@H](O)[C@H](O)[C@H]3N)[C@@H](N)C[C@H]2N)OC[C@]1(C)O` [G418] the survival (neo +/+ transgenic mice; 47 mg/kg single i.p.) was “surv (surv, animals survived the 10 day period)”, the “body weight, percentage of the body weight before the experiment” value (from here on “body weight, percentage”) (neo +/+ transgenic mice; 68 mg/kg single i.p.) was 100 ± 1% and the survival (neo +/+ transgenic mice; 68 mg/kg single i.p.) was “surv (surv, animals survived the 10 day period)”. For the same compound, the survival (neo +/+ transgenic mice; 103 mg/kg single i.p.) was “surv (surv, animals survived the 10 day period)”, the “body weight, percentage” value (neo +/+ transgenic mice; 153 mg/kg single i.p.) was 102 ± 3% and the survival (neo +/+ transgenic mice; 153 mg/kg single i.p.) was “surv (surv, animals survived the 10 day period)”. For the same compound, the “body weight, percentage” value (neo +/+ transgenic mice; 230 mg/kg single i.p.) was 100 ± 2%, the survival (neo +/+ transgenic mice; 230 mg/kg single i.p.) was “surv (surv, animals survived the 10 day period)” and the “body weight, percentage” value (neo +/+ transgenic mice; 345 mg/kg single i.p.) was 98 ± 4%. For the same compound, the survival (neo +/+ transgenic mice; 345 mg/kg single i.p.) was “surv (surv, animals survived the 10 day period)”, the “body weight, percentage” value (neo +/+ transgenic mice; 480 mg/kg single i.p.) was 100 ± 1% and the survival (neo +/+ transgenic mice; 480 mg/kg single i.p.) was “surv (surv, animals survived the 10 day period)”. The “body weight, percentage” value (neo +/+ transgenic mice; 778 mg/kg single i.p.) was 101 ± 1%, the survival (neo +/+ transgenic mice; 778 mg/kg single i.p.) was “surv (surv, animals survived the 10 day period)” and the “body weight, percentage” value (neo +/+ transgenic mice; 1140 mg/kg single i.p.) was 100 ± 1%. The survival (neo +/+ transgenic mice; 1140 mg/kg single i.p.) was 1 days, the “increase of the approximate lethal dose” value (neo +/+ transgenic mice; neoR expression in transgenic animals vs wild type) was 10 fold and the “time to death due to breath failure after injection” value (neo +/+ transgenic mice; neo^R transgenic animals, highest dose 1140 mg/kg) was at most 10 min. The “body weight, percentage” value (Neo −/− mice; 47 mg/kg single i.p.) was 101 ± 1%, the survival (Neo −/− mice; 47 mg/kg single i.p.) was “surv (surv, animals survived the 10 day period)” and the “body weight, percentage” value (Neo −/− mice; 68 mg/kg single i.p.) was 104 ± 4%. For the same compound, the survival (Neo −/− mice; 68 mg/kg single i.p.) was “surv (surv, animals survived the 10 day period)”, the “body weight, percentage” value (Neo −/− mice; 103 mg/kg single i.p.) was 73 ± 6% and the survival (Neo −/− mice; 103 mg/kg single i.p.) was 8 days. For the same compound, the “body weight, percentage” value (Neo −/− mice; 153 mg/kg single i.p.) was 73 ± 5%, the survival (Neo −/− mice; 153 mg/kg single i.p.) was 8 days and the “body weight, percentage” value (Neo −/− mice; 230 mg/kg single i.p.) was 85 ± 2%. The survival (Neo −/− mice; 230 mg/kg single i.p.) was 4 days, the “body weight, percentage” value (Neo −/− mice; 345 mg/kg single i.p.) was 97 ± 1% and the survival (Neo −/− mice; 345 mg/kg single i.p.) was 1 days. For the same compound, the “body weight, percentage” value (Neo −/− mice; 480 mg/kg single i.p.) was 99 ± 1%, the survival (Neo −/− mice; 480 mg/kg single i.p.) was 1 days and the “body weight, percentage” value (Neo −/− mice; 778 mg/kg single i.p.) was 100 ± 2%. For the same compound, the survival (Neo −/− mice; 778 mg/kg single i.p.) was 1 days, the ALT (neo^R mice) was 54.3 ± 14.4 u/l and the BUN (neo^R mice) was 22.3 ± 0.9 mg/dL. It also gave a CRE (neo^R mice) of 0.23 ± 0.05 mg/dL, an ALT (wildtype mice) of 102.0 ± 9.4 u/l and a BUN (wildtype mice) of 96.0 ± 14.2 mg/dL. For the same compound, the CRE (wildtype mice) was 0.67 ± 0.05 mg/dL.
